This note sets out measurements from US20030191144A1, “Compounds, compositions and methods for modulating beta-amyloid production” (Active Pass Pharmaceuticals, Inc., priority 2001, published 2003).

Experiment [1] has as its system Aβ42 production and/or release from SM-4 cells. The experiment in a line: Aβ42 ELISA of culture media from SM-4 cells. It counts as cell-based. The settings on record: 16 hrs, p<0.001. As for the experimental part: Cell Lines and Pharmacological Treatments. 293 EBNA cells (InVitrogen, Carlsbad, Calif.) stably transfected with Swedish mutant β-Amyloid Precursor Protein -695 (SM4 cells) were routinely maintained in DMEM supplemented with sodium pyruvate (1 mM) and 10% fetal bovine serum. Cells were seeded into poly-D-Lysine (SIGMA) coated 6-well plates at a density of 5-7×10^5 cells per well. Subsequently, the cells were rinsed in 1 ml of PBS and treated with 10-500 μM of pirinixic acid in serum-free/phenol red-free DMEM for 16 hours.
(§1) Aβ Detection and Standardization. After the pharmacological treatment, the exposure media was collected and supplemented with 10% sample treatment buffer (40 mM sodium phosphate (pH 7.4), 40 mM triethanolamine, 0.1% Triton X-100, 200 mM NaCl, 2 mM EGTA, 0.1% Sodium azide), and assayed for either Aβ40 or Aβ42 by a calorimetric ELISA as per the manufacturer's protocol (Biosource International Inc, California). The cells were lysed in 0.1% Triton X-100 in PBS supplemented with 5 μM propridium iodide (Molecular Probes, Eugene, Oreg.) and incubated at 37° C. for 30 minutes prior to measuring fluorescence. Aβ40 and Aβ42 were standardized against propridium iodide fluorescence as a measure of total cell number. […]
as §1, with “After” for “Aβ Detection and Standardization. After”
After the pharmacological treatment, the exposure media was collected and supplemented with 10% sample treatment buffer (40 mM sodium phosphate (pH 7.4), 40 mM triethanolamine, 0.1% Triton X-100, 200 mM NaCl, 2 mM EGTA, 0.1% Sodium azide), and assayed for either Aβ40 or Aβ42 by a colorimetric ELISA as per the manufacturer's protocol (Biosource International Inc, California). The cells were lysed in 0.1% Triton X-100 in PBS supplemented with 5 μM propridium iodide (Molecular Probes, Eugene, Oreg.) and incubated at 37° C. for 30 minutes prior to measuring fluorescence. Aβ40 and Aβ42 were standardized against propridium iodide fluorescence as a measure of total cell number.

Experiment [2] has as its system Aβ40 production and/or release from SM-4 cells. The experiment in a line: Aβ40 ELISA of culture media from SM-4 cells. It counts as cell-based. The settings on record: 16 hrs. The method, then:
Cell Lines and Pharmacological Treatments. 293 EBNA cells (InVitrogen, Carlsbad, Calif.) stably transfected with Swedish mutant β-Amyloid Precursor Protein -695 (SM4 cells) were routinely maintained in DMEM supplemented with sodium pyruvate (1 mM) and 10% fetal bovine serum. Cells were seeded into poly-D-Lysine (SIGMA) coated 6-well plates at a density of 5-7×10^5 cells per well. Subsequently, the cells were rinsed in 1 ml of PBS and treated with 10-500 μM of pirinixic acid in serum-free/phenol red-free DMEM for 16 hours. Aβ Detection and Standardization. After the pharmacological treatment, the exposure media was collected and supplemented with 10% sample treatment buffer (40 mM sodium phosphate (pH 7.4), 40 mM triethanolamine, 0.1% Triton X-100, 200 mM NaCl, 2 mM EGTA, 0.1% Sodium azide), and assayed for either Aβ40 or Aβ42 by a calorimetric ELISA as per the manufacturer's protocol (Biosource International Inc, California). The cells were lysed in 0.1% Triton X-100 in PBS supplemented with 5 μM propridium iodide (Molecular Probes, Eugene, Oreg.) and incubated at 37° C. for 30 minutes prior to measuring fluorescence. Aβ40 and Aβ42 were standardized against propridium iodide fluorescence as a measure of total cell number. 293 EBNA cells (InVitrogen, Carlsbad, Calif.) stably transfected with Swedish mutant β-Amyloid Precursor Protein -695 (SM4 cells) were routinely maintained in DMEM supplemented with sodium pyruvate (1 mM) and 10% fetal bovine serum. […] The cells were lysed in 0.1% Triton X-100 in PBS supplemented with 5 μM propridium iodide (Molecular Probes, Eugene, Oreg.) and incubated at 37° C. for 30 minutes prior to measuring fluorescence. Aβ40 and Aβ42 were standardized against propridium iodide fluorescence as a measure of total cell number. […] The cells were lysed in 0.1% Triton X-100 in PBS supplemented with 5 μM propridium iodide (Molecular Probes, Eugene, Oreg.) and incubated at 37° C. for 30 minutes prior to measuring fluorescence. Aβ40 and Aβ42 were standardized against propridium iodide fluorescence as a measure of total cell number.
In general terms: ELISA stands for enzyme-linked immunosorbent assay.

Structures are written as SMILES.

As to `Cc1cccc(N(C)c2cc(Cl)nc(SCC(=O)O)n2)c1C` [Compound 1], in experiment [1] (300 μM), the “inhibition of Aβ42 secretion” value was found to be 66%. Further, the “effect on Aβ40” value in experiment [2] (50-300 μM) is “without altering Aβ40”.

As for `CCN(c1cc(Cl)nc(SCC(=O)O)n1)c1cccc(C)c1C` [Compound 2, {4-chloro-6-[(2,3-dimethylphenyl)ethylamino]pyrimidin-2-yl-sulfanyl}acetic Acid], the “inhibition of Aβ42 secretion” value in experiment [1] (100 μM) was found to be 80%. The “effect on Aβ40” value in experiment [2] (5-100 μM) is recorded as “without altering Aβ40”.
